From patent publication EP0366632A1, “Alternative energy substrates” (priority 1988, dated 1990)

Key:
[1] = system: Escherichia coli ATCC 8739; assay: Microorganism count in 2% and 0.2% ester emulsions (Example 14); format: cell-based; conditions: for number of microorganisms: after 1-5 minutes, +37°C, starting concentration about 10⁴
Experimental: The emulsions contained egg-yolk phospholipid 1,2% and sterile water, in addition to ester. The emulsions were prepared aseptically, by emulsifying sterile-filtered ester with a steriled dispersion of egg-yolk phospholipids.
Aliquots of these emulsions were diluted with phosphate buffer (0.01 M, pH=7.0) in the proportions of 1 and 10 and 1 and 100 in respective emulsions. Escherichia coli ATCC 8739 was added to the solutions. The solutions were then incubated at +37°C for 20 hours. The microorganism count was carried out after 1-5 minutes, 2 and 20 hours, in the manner described in microbiological literature. Parallel with the above tests, a check was carried out on phospholipide solution 1,2% and TSB (Tryptone soya broth) with additions of Escherichia coli ATCC 8739. The latter substrate was tested to ascertain whether or not the control microorganisms were viable. […] The starting concentration was about 10⁴. In the samples containing 4-methyl-3-oxo-pentanoic acid ethyl ester having the concentrations of 2% and 0.2%, the number of microorganisms present per ml after 1-5 minutes was 0 and 10⁴ respectively. After 2 hours, the microorganism count was 0 and 10 respectively, and after 20 hours 0 and 10 respectively. In the samples containing 5-methyl-3-oxo-hexanoic acid ethyl ester with the concentrations of 2% and 0.2%, the microorganism count per ml was 10 and 10 respectively after 1-5 minutes, 0 and 0 respectively after 2 hours, and 0 and 0 respectively after 20 hours.

Penicillium sp. (mould) = assay: Microorganism count in 2% ester emulsions (Example 12, Table 1); format: cell-based; conditions: 2% emulsion, phosphate buffer pH=7.0, +37°C, Additive/ml 3162
Experimental: (§1) In addition to ester, the emulsions also comprised egg-yolk phospholipid 1,2% and sterile water. The emulsions were prepared aseptically, by emulsifying sterile-filtered ester with a sterilized dispersion of egg-yolk phospholipids. Aliquots of these emulsions were diluted with a phosphate buffer (0.01 M, pH=7.0) in the proportions of 1 and 10 respectively, so as to obtain 2-percent emulsions. Various microorganisms according to Table 1 below were added to these emulsions. The samples were then incubated at +37°C for 20 hours. Counting of the number of microorganisms was started after 2 and 20 hours, in the manner described in microbiological literature. Checks were run on a pure phosphate buffer with additives of the same microorganisms as earlier, in parallel with the aforesaid experiments, while checks were run in Tryptone Soya broth (TSB) with additions of the same microorganisms, in order to ascertain whether or not the microorganisms could survive, i.e. could grow under the ideal conditions. […]

[2] = system: Asperg. niger ATCC 16404 (mould); assay: as above; format: cell-based; conditions: 2% emulsion, phosphate buffer pH=7.0, +37°C, Additive/ml 7943
Experimental: as §1

Serr. maresc. ATCC 14756 = assay: as above; format: cell-based; conditions: 2% emulsion, phosphate buffer pH=7.0, +37°C, Additive/ml 6310
Experimental: as §1

[3] = system: Cand. albicans ATCC 10231 (yeast); assay: as above; format: cell-based; conditions: 2% emulsion, phosphate buffer pH=7.0, +37°C, Additive/ml 6310
Experimental: as §1

Enter. cloacae = assay: as above; format: cell-based; conditions: 2% emulsion, phosphate buffer pH=7.0, +37°C, Additive/ml 1585
Experimental: as §1

Cand. parapsil. (yeast) = assay: as above; format: cell-based; conditions: 2% emulsion, phosphate buffer pH=7.0, +37°C, Additive/ml 5012
Experimental: as §1

Klebs. pneum. ATCC 25955 = assay: as above; format: cell-based; conditions: 2% emulsion, phosphate buffer pH=7.0, +37°C, Additive/ml 1995
Experimental: as §1

Proteus vulg. ATCC 13315 = assay: as above; format: cell-based; conditions: 2% emulsion, phosphate buffer pH=7.0, +37°C, Additive/ml 1000
Experimental: as §1

[4] = system: Ps. aeruginosa ATCC 19429; assay: as above; format: cell-based; conditions: 2% emulsion, phosphate buffer pH=7.0, +37°C, Additive/ml 7943
Experimental: as §1

Ulocladium sp. (mould) = assay: as above; format: cell-based; conditions: 2% emulsion, phosphate buffer pH=7.0, +37°C, Additive/ml 2512
Experimental: as §1

Staf. aureus ATCC 6535 = assay: as above; format: cell-based; conditions: 2% emulsion, phosphate buffer pH=7.0, +37°C, Additive/ml 5012
Experimental: as §1

E. coli ATCC 8739 = assay: as above; format: cell-based; conditions: 2% emulsion, phosphate buffer pH=7.0, +37°C, Additive/ml 6310
Experimental: as §1

Staf. epiderm. = assay: as above; format: cell-based; conditions: 2% emulsion, phosphate buffer pH=7.0, +37°C, Additive/ml 6310
Experimental: as §1

[5] = Total parenteral nutrition (TPN) with ester as energy substitute in rats; conditions: 9 days; for toxicity at the dosages tested: 2 g/kg body weight and 24 hours; for average growth per day during the whole of the test period: ester 2 g/kg body weight and 24 hours in place of equivalent glucose energy
Experimental: Sprague-Dawley male rats weighing 180-190 g were sur­gically fitted with a central vein catheter protected by a saddle (Roos et al, 1981). Total parenteral nutrition (TPN) was administered in accordance with the following standard formula: Fat: 8 g/kg body weight and 24 hours Nitrogen: 1,2 g/kg body weight and 24 hours Total energy supplied: 1257 kJ/kg body weight and 24 hours Liquid: 300 ml/kg body weight and 24 hours The glucose to fat ratio was 70-30 energy percent. The energy percentage obtained from the energy substitutes during the test period corresponded to about 5% NPC. The TPN-mixture was obtained by mixing Vamin^R 14 (a solution of essential and non-essential amino acids for paren­teral nutrient administration, retailed by KabiVitrum AB) with no electrolytes, glucose solution 50% and Intralipid^R 20% in suitable proportions and adding adequate quantities of electrolytes, trace minerals and vitamins. Subsequent to infusing the rats continuously for one week (20 hours/day), the animals were divided randomly into three groups, with 6 animals in each group. The animals of one group were administered with the same TPN-formula as that previously mentioned (the reference group). […] The compounds were given in a dosage of 2 g/kg body weight and 24 hours in a yield corres­ponding to equivalent glucose energy quantities. In other respects, the TPN-program or formula was the same as that for the reference group. The experiment was then continued for a further 9 days, during which the weights of the animals were recorded daily and urine collected and frozen. At the end of the test period, the rats were killed by heart puncture while under a pentobarbital anesthetic and an autopsy was performed on the rat carcasses with microscopic examination. The body organs were sent to a laboratory for pathological assay.

[6] = system: Staphylococcus aureus ATCC 6535; assay: Microorganism count in 2% and 0.2% ester emulsions (Example 13); format: cell-based
Experimental: Both of the emulsions included egg-yolk phospholipide 1,2% and sterile water, in addition to ester. The emulsions were prepared aseptically, by emulsifying sterile-filtered ester with a sterilized dispersion of egg-yolk phospholipids.
Aliquots of these emulsions were diluted with phosphate buffer (0.01 M, pH=7.0), in the proportions of 1 and 100 in respective emulsions. Staphylococcus aureus ATCC 6535 was then added to the emulsions. The samples were then incubated at +37°C for 20 hours. The microorganism count was carried out after 1-5 minutes, 2 and 20 hours, in the manner described in microbiological literature. Parallel with the above experiments, a check was made on the phospholipid solution 1,2% and TSB (Tryptone soya broth), by adding Staphylococcus aureus ATCC 6535. The latter substrate was tested to ascertain whether the controlled microorganisms were viable. […] The starting concentration was about 5x10³. […] After 2 hours, the number of microorganisms was 0 and 10 respectively, and after 20 hours 0 and 0 respectively. In the samples containing 5-methyl-3-oxo-hexanoic acid ethyl ester with concentrations of 2% and 0.2%, the number of microorganisms per ml present after 1-5 minutes was 10⁴, after 2 hours 0 and 100 respectively, and after 20 hours 0 and 0 respec tively.

Energy density = format: physicochemical

Row | Compound | microorganism count ([1]; 0.2%, after 2 hours) [per ml] | microorganism count ([1]; 0.2%, after 20 hours) [per ml] | number of microorganisms ([1]; 2%) [per ml] | microorganism count ([1]; 2%, after 2 hours) [per ml] | microorganism count ([1]; 2%, after 20 hours) [per ml] | number of microorganisms (Penicillium sp. (mould); 2 hrs) | number of microorganisms (Penicillium sp. (mould); 20 hrs) | number of microorganisms ([2]; 2 hrs) | number of microorganisms ([2]; 20 hrs) | number of microorganisms (Serr. maresc. ATCC 14756; 2 hrs) | number of microorganisms (Serr. maresc. ATCC 14756; 20 hrs) | number of microorganisms ([3]; 2 hrs) | number of microorganisms ([3]; 20 hrs) | number of microorganisms (Enter. cloacae; 2 hrs) | number of microorganisms (Enter. cloacae; 20 hrs) | number of microorganisms (Cand. parapsil. (yeast); 2 hrs) | number of microorganisms (Cand. parapsil. (yeast); 20 hrs) | number of microorganisms (Klebs. pneum. ATCC 25955; 2 hrs) | number of microorganisms (Klebs. pneum. ATCC 25955; 20 hrs) | number of microorganisms (Proteus vulg. ATCC 13315; 2 hrs) | also measured
1 | CCOC(=O)CC(=O)C(C)C [4-methyl-3-oxo-pentanoic acid ethyl ester] | 10 | 10 | 0 | 0 | 0 | 5012 | 0 | 3981 | 1000 | 0 | 0 | 200 | 0 | 0 | 0 | 1000 | 0 | 0 | 0 | 0 | number of microorganisms (Proteus vulg. ATCC 13315; 20 hrs): 0; number of microorganisms ([4]; 2 hrs): 0; number of microorganisms ([4]; 20 hrs): 0; number of microorganisms (Ulocladium sp. (mould); 2 hrs): 3981; number of microorganisms (Ulocladium sp. (mould); 20 hrs): 0; number of microorganisms (Staf. aureus ATCC 6535; 2 hrs): 0; number of microorganisms (Staf. aureus ATCC 6535; 20 hrs): 0; number of microorganisms (E. coli ATCC 8739; 2 hrs): 0; number of microorganisms (E. coli ATCC 8739; 20 hrs): 0; number of microorganisms (Staf. epiderm.; 2 hrs): 0; number of microorganisms (Staf. epiderm.; 20 hrs): 0; toxicity at the dosages tested [5]: non-toxic; average growth per day during the whole of the test period [5]: 3.7 ± 0.8 g; number of microorganisms ([6]; 0.2%, after 2 hours): 10 per ml; number of microorganisms ([6]; 0.2%, after 20 hours): 0 per ml; number of microorganisms ([6]; 2%, after 1-5 minutes, +37°C, starting concentration about 5x10³): 100 per ml; number of microorganisms ([6]; 2%, after 2 hours): 0 per ml; number of microorganisms ([6]; 2%, after 20 hours): 0 per ml; energy density (Energy density): 27.94 kJ/g
2 | CCOC(=O)CC(=O)CC(C)C [5-methyl-3-oxo-hexanoic acid ethyl ester] | 0 | 0 | 10 | 0 | 0 | 3981 | 316 | 5012 | 5012 | 0 | 0 | 1995 | 0 | 0 | 0 | 3162 | 0 | 0 | 0 | 0 | number of microorganisms ([1]; 0.2%): 10 per ml; number of microorganisms (Proteus vulg. ATCC 13315; 20 hrs): 0; number of microorganisms ([4]; 2 hrs): 0; number of microorganisms ([4]; 20 hrs): 0; number of microorganisms (Ulocladium sp. (mould); 2 hrs): 5012; number of microorganisms (Ulocladium sp. (mould); 20 hrs): 0; number of microorganisms (Staf. aureus ATCC 6535; 2 hrs): 0; number of microorganisms (Staf. aureus ATCC 6535; 20 hrs): 0; number of microorganisms (E. coli ATCC 8739; 2 hrs): 0; number of microorganisms (E. coli ATCC 8739; 20 hrs): 0; number of microorganisms (Staf. epiderm.; 2 hrs): 794; number of microorganisms (Staf. epiderm.; 20 hrs): 25; toxicity at the dosages tested [5]: non-toxic; average growth per day during the whole of the test period [5]: 2.8 ± 0.2 g; number of microorganisms ([6]; 0.2%, after 2 hours): 100 per ml; number of microorganisms ([6]; 0.2%, after 20 hours): 0 per ml; number of microorganisms ([6]; 2%, after 2 hours): 0 per ml; number of microorganisms ([6]; 2%, after 20 hours): 0 per ml; energy density (Energy density): 29.24 kJ/g
